# Laboratory results: US4528293A, “Heteroaromatic derivatives of iminomethyl piperidines and use to inhibit gastric acid secretion” (McNeilab, Inc., priority 1983, dated 1985)
# System: gastric acid secretion
# Assay: Acute gastric fistula rat test: inhibition of gastric acid secretion (Total Acid Output)
# Assay type: in vivo, Female Sprague-Dawley rats
# Conditions: ip, compound administered intraperitoneally (footnote *), read-out: ED50 Acute Gastric Fistula (dose required to produce an average of 50% inhibition in Total Acid Output versus controls)
# Protocol: The compounds of the invention of formula (I) are useful for the inhibition of gastric acid secretion as measured by the following test. Female Sprague-Dawley rats are fasted twenty-four hours before testing and are given water ad libidum while being kept in individual cages. On the day of testing, the rats are weighed within a range of ±20 grams.
# Surgery is carried out under light ether anesthesia. As soon as the rat is anesthetized its teeth are removed and a mid-line incision is made on the abdomen about 11/2 inches in length and the stomach and duodenum are exposed. If at this point the stomach is filled with food or fecal material, the rat is discarded. If the condition of the stomach is acceptable, a purse string stitch is placed on the fundic portion of the stomach with a suture, taking care not to pierce any blood vessels in the area. A small nick is then made into the stomach in the center of the purse string, and a cannula, consisting of a small vinyl tube with a flange on one end, is put into the stomach, and the purse string stitch is closed tightly around the flange. The test compound is administered either intraduodonally (i.d.) immediately after surgery or orally (p.o.) one hour prior to surgery at doses generally ranging from about 0.25 to about 160 mg/kg in a volume of 0.5 ml/100 grams rat. Control rats receive the test vehicle, 0.5% aqueous hydroxypropyl methyl cellulose.
# After surgery and, in the case of i.d. administration, after administration of the test compound, the abdominal wall and skin are closed simultaneously with three or four 18 mm wound clips and a collecting tube is placed on the cannula. Each rat is then placed in a box in which a longitudinal slit has been made to allow the cannula to hang freely and to allow the rat to move about unencumbered. After the rat has been allowed to stabilize for thirty minutes, the collection tube on the cannula is discarded and replaced with a clean tube to receive the gastric juice. Collections are made one hour after stabilization.
# The sample of gastric contents collected is drained into a centrifuge tube and centrifuged to pack down the sediment. The volume is read and a 1 ml aliquot of the supernatant is put into a beaker containing 20 ml of distilled water and is titrated to pH 7 using 0.01N sodium hydroxide. Results are determined for Volume, Titratable Acid and Total Acid Output, where Volume equals total ml of gastric juice minus sediment; Titratable Acid (meq/1) equals amount of 0.01N sodium hydroxide needed to titrate the acid to pH 7; and Total Acid Output equals Titratable Acid times Volume. Results are reported as the ED50 dose (mg/kg required to produce an average of 50% inhibition in Total Acid Output versus controls in the animals tested for a particular compound) and as percent inhibition.
row,SMILES,ED50 [mg/kg]
1,"C(=NCCc1c[nH]c2ccccc12)N1CCC(C(c2ccccc2)c2ccccc2)CC1 [Example 2, N-(4-Diphenylmethyl-1-piperidinyl)-methylene-3-1H-indoleethaneamine monohydroiodide]",4.34

# Same assay, conditions: po, one hour prior to surgery, 1 h collection after 30 min stabilization, read-out: ED50 Acute Gastric Fistula (dose required to produce an average of 50% inhibition in Total Acid Output versus controls)
row,SMILES,ED50 [mg/kg]
1,"Cn1cccc1CCN=CN1CCC(C(c2ccccc2)c2ccccc2)CC1.O=C(O)/C=C/C(=O)O [Example 3, 4-Diphenylmethyl-1-[N-[(1-methyl-1H-pyrrol-2-yl)ethyl]-iminomethyl]piperidine (E)-2-butenedioate]",3.61
2,"C(=NCCc1ccncc1)N1CCC(C(c2ccccc2)c2ccccc2)CC1 [Example 6, 4-Diphenylmethyl-1-[[2-(4-pyridinyl)ethyl]iminomethyl]piperidine 2-naphthalenesulfonate hydrate (4:4:3)]",18.8
3,"C(=NCc1cccs1)N1CCC(C(c2ccccc2)c2ccccc2)CC1 [Example 4, 4-(Diphenylmethyl)-1-[(2-thiophenemethyl)imino]methylpiperidine (E)-2-butenedioate (1:1) hydrate (2:1)]",6.59
4,"C(=NCCc1ccccn1)N1CCC(C(c2ccccc2)c2ccccc2)CC1 [Example 5, 4-(Diphenylmethyl-1[[2-(2-pyridinyl)ethyl]iminomethyl]piperidine (E)-2-butenedioate (1:1)]",3.47
5,"C(=NCc1ccco1)N1CCC(C(c2ccccc2)c2ccccc2)CC1 [Example 1, 4-(Diphenylmethyl)-1-[(2-furanylmethyl)iminomethyl]piperidine (E)-2-butenedioate (1:1) hydrate (5:2)]",6.91
